Experiments:
Conditions in all cases: in vivo
Rattus norvegicus [1] = assay: Biodistribution in albino Wistar Hannover rat muscle cranial at 5 mg/kg, iv after 24 hrs by autoradiography analysis; format: ADME, organism-based, Muscle tissue; set-up: dose 5 mg/kg, route intravenous
Liver [2] = assay: Biodistribution in albino Wistar Hannover rat liver at 5 mg/kg, iv after 24 hrs by autoradiography analysis; format: ADME, organism-based; set-up: dose 5 mg/kg, route intravenous
Spleen [3] = assay: Biodistribution in albino Wistar Hannover rat spleen at 5 mg/kg, iv after 24 hrs by autoradiography analysis; format: ADME, organism-based; set-up: dose 5 mg/kg, route intravenous
Spleen [4] = assay: Drug uptake in albino Wistar Hannover rat spleen at 5 mg/kg, iv by LESA-MS analysis; format: ADME, organism-based; set-up: dose 5 mg/kg, route intravenous
Rattus norvegicus [5] = assay: Biodistribution in albino Wistar Hannover rat adrenal cortex at 5 mg/kg, iv after 24 hrs by autoradiography analysis; format: ADME, organism-based; set-up: dose 5 mg/kg, route intravenous
Brain [6] = assay: Half life in albino Wistar Hannover rat brain at 5 mg/kg, iv by autoradiography analysis; format: ADME, organism-based; set-up: dose 5 mg/kg, route intravenous
Pituitary gland = assay: Biodistribution in albino Wistar Hannover rat pituitary at 5 mg/kg, iv after 24 hrs by autoradiography analysis; format: ADME, organism-based; set-up: dose 5 mg/kg, route intravenous
Liver [7] = assay: Drug uptake in albino Wistar Hannover rat liver at 5 mg/kg, iv
Lung [8] = assay: Drug uptake in albino Wistar Hannover rat lung at 5 mg/kg, iv by LESA-MS analysis; format: ADME, organism-based; set-up: dose 5 mg/kg, route intravenous
Thymus [9] = assay: Drug uptake in albino Wistar Hannover rat thymus at 5 mg/kg, iv by LESA-MS analysis; format: ADME, organism-based; set-up: dose 5 mg/kg, route intravenous
[10] = Half life in albino Wistar Hannover rat salivary gland at 5 mg/kg, iv by autoradiography analysis; format: ADME, organism-based; set-up: dose 5 mg/kg, route intravenous
Rattus norvegicus [11] = assay: Biodistribution in albino Wistar Hannover rat testis at 5 mg/kg, iv after 5 mins by autoradiography analysis; format: ADME, organism-based; set-up: dose 5 mg/kg, route intravenous
Rattus norvegicus [12] = assay: Biodistribution in albino Wistar Hannover rat renal cortex at 5 mg/kg, iv after 24 hrs by autoradiography analysis; format: ADME, organism-based; set-up: dose 5 mg/kg, route intravenous
Liver [13] = assay: Biodistribution in albino Wistar Hannover rat liver at 5 mg/kg, iv after 5 mins by autoradiography analysis; format: ADME, organism-based; set-up: dose 5 mg/kg, route intravenous
Rattus norvegicus [14] = assay: Biodistribution in albino Wistar Hannover rat bone marrow at 5 mg/kg, iv after 4 hrs by autoradiography analysis; format: ADME, organism-based; set-up: dose 5 mg/kg, route intravenous
Rattus norvegicus [15] = assay: Biodistribution in albino Wistar Hannover rat muscle caudal at 5 mg/kg, iv after 24 hrs by autoradiography analysis; format: ADME, organism-based, Muscle tissue; set-up: dose 5 mg/kg, route intravenous
Blood [16] = assay: Biodistribution in albino Wistar Hannover rat whole blood at 5 mg/kg, iv after 5 mins by liquid scintillation counting; format: ADME, organism-based; set-up: dose 5 mg/kg, route intravenous
Rattus norvegicus [17] = assay: Biodistribution in albino Wistar Hannover rat myocardium at 5 mg/kg, iv after 5 mins by autoradiography analysis; format: ADME, organism-based; set-up: dose 5 mg/kg, route intravenous
Plasma [18] = assay: Half life in albino Wistar Hannover rat plasma at 5 mg/kg, iv by liquid scintillation counting; format: ADME, organism-based; set-up: dose 5 mg/kg, route intravenous
Blood [19] = assay: Biodistribution in albino Wistar Hannover rat whole blood at 5 mg/kg, iv after 4 hrs by liquid scintillation counting; format: ADME, organism-based; set-up: dose 5 mg/kg, route intravenous
Spleen [20] = assay: Biodistribution in albino Wistar Hannover rat spleen at 5 mg/kg, iv after 4 hrs by autoradiography analysis; format: ADME, organism-based; set-up: dose 5 mg/kg, route intravenous
[21] = Drug uptake in albino Wistar Hannover rat white fat at 5 mg/kg, iv by LESA-MS analysis; format: ADME, organism-based, White adipose tissue; set-up: dose 5 mg/kg, route intravenous
Brain [22] = assay: Drug uptake in albino Wistar Hannover rat brain at 5 mg/kg, iv by LESA-MS analysis; format: ADME, organism-based; set-up: dose 5 mg/kg, route intravenous
Plasma [23] = assay: Biodistribution in albino Wistar Hannover rat plasma at 5 mg/kg, iv after 24 hrs by liquid scintillation counting; format: ADME, organism-based; set-up: dose 5 mg/kg, route intravenous
Kidney = assay: Drug uptake in albino Wistar Hannover rat outer medulla of kidney at 5 mg/kg, iv by LESA-MS analysis; format: ADME, organism-based; set-up: dose 5 mg/kg, route intravenous
[24] = Drug uptake in albino Wistar Hannover rat brown fat at 5 mg/kg, iv by LESA-MS analysis; format: ADME, organism-based, Brown adipose tissue; set-up: dose 5 mg/kg, route intravenous
Harderian gland [25] = assay: Biodistribution in albino Wistar Hannover rat harderian gland at 5 mg/kg, iv after 4 hrs by autoradiography analysis; format: ADME, organism-based; set-up: dose 5 mg/kg, route intravenous
[26] = Drug uptake in albino Wistar Hannover rat myocardium at 5 mg/kg, iv by LESA-MS analysis; format: ADME, organism-based; set-up: dose 5 mg/kg, route intravenous
Rattus norvegicus [27] = assay: Biodistribution in albino Wistar Hannover rat epididymis at 5 mg/kg, iv after 5 mins by autoradiography analysis; format: ADME, organism-based; set-up: dose 5 mg/kg, route intravenous
Lung [28] = assay: Biodistribution in albino Wistar Hannover rat lung at 5 mg/kg, iv after 5 mins by autoradiography analysis; format: ADME, organism-based; set-up: dose 5 mg/kg, route intravenous
Rattus norvegicus [29] = assay: Biodistribution in albino Wistar Hannover rat muscle cranial at 5 mg/kg, iv after 4 hrs by autoradiography analysis; format: ADME, organism-based, Muscle tissue; set-up: dose 5 mg/kg, route intravenous
Rattus norvegicus [30] = assay: Biodistribution in albino Wistar Hannover rat muscle caudal at 5 mg/kg, iv after 4 hrs by autoradiography analysis; format: ADME, organism-based, Muscle tissue; set-up: dose 5 mg/kg, route intravenous
Harderian gland [31] = assay: Biodistribution in albino Wistar Hannover rat harderian gland at 5 mg/kg, iv after 24 hrs by autoradiography analysis; format: ADME, organism-based; set-up: dose 5 mg/kg, route intravenous
Plasma [32] = assay: Biodistribution in albino Wistar Hannover rat plasma at 5 mg/kg, iv after 5 mins by liquid scintillation counting; format: ADME, organism-based; set-up: dose 5 mg/kg, route intravenous
Rattus norvegicus [33] = assay: Biodistribution in albino Wistar Hannover rat adrenal cortex at 5 mg/kg, iv after 5 mins by autoradiography analysis; format: ADME, organism-based; set-up: dose 5 mg/kg, route intravenous
Liver [34] = assay: Half life in albino Wistar Hannover rat liver at 5 mg/kg, iv by autoradiography analysis; format: ADME, organism-based; set-up: dose 5 mg/kg, route intravenous
Blood [35] = assay: Half life in albino Wistar Hannover rat whole blood at 5 mg/kg, iv by liquid scintillation counting; format: ADME, organism-based; set-up: dose 5 mg/kg, route intravenous
Rattus norvegicus [36] = assay: Biodistribution in albino Wistar Hannover rat adipose tissue at 5 mg/kg, iv after 4 hrs by autoradiography analysis; format: ADME, organism-based; set-up: dose 5 mg/kg, route intravenous
[37] = Drug uptake in albino Wistar Hannover rat epididymis at 5 mg/kg, iv by LESA-MS analysis; format: ADME, organism-based; set-up: dose 5 mg/kg, route intravenous
[38] = Drug uptake in albino Wistar Hannover rat testis at 5 mg/kg, iv by LESA-MS analysis; format: ADME, organism-based; set-up: dose 5 mg/kg, route intravenous
[39] = Drug uptake in albino Wistar Hannover rat harder's gland at 5 mg/kg, iv by LESA-MS analysis; format: ADME, organism-based, Harderian gland; set-up: dose 5 mg/kg, route intravenous
Rattus norvegicus [40] = assay: Biodistribution in albino Wistar Hannover rat tongue at 5 mg/kg, iv after 24 hrs by autoradiography analysis; format: ADME, organism-based; set-up: dose 5 mg/kg, route intravenous
Pancreas [41] = assay: Biodistribution in albino Wistar Hannover rat pancreas at 5 mg/kg, iv after 5 mins by autoradiography analysis; format: ADME, organism-based; set-up: dose 5 mg/kg, route intravenous
Rattus norvegicus [42] = assay: Biodistribution in albino Wistar Hannover rat myocardium at 5 mg/kg, iv after 24 hrs by autoradiography analysis; format: ADME, organism-based; set-up: dose 5 mg/kg, route intravenous
[43] = Retention time in albino Wistar Hannover rat at 5 mg/kg, iv; format: ADME, organism-based; set-up: dose 5 mg/kg, route intravenous
Rattus norvegicus [44] = assay: Biodistribution in albino Wistar Hannover rat testis at 5 mg/kg, iv after 4 hrs by autoradiography analysis; format: ADME, organism-based; set-up: dose 5 mg/kg, route intravenous
Pancreas [45] = assay: Drug uptake in albino Wistar Hannover rat pancreas at 5 mg/kg, iv by LESA-MS analysis; format: ADME, organism-based; set-up: dose 5 mg/kg, route intravenous
Rattus norvegicus [46] = assay: Biodistribution in albino Wistar Hannover rat testis at 5 mg/kg, iv after 24 hrs by autoradiography analysis; format: ADME, organism-based; set-up: dose 5 mg/kg, route intravenous
Blood [47] = assay: Biodistribution in albino Wistar Hannover rat whole blood at 5 mg/kg, iv after 24 hrs by liquid scintillation counting; format: ADME, organism-based; set-up: dose 5 mg/kg, route intravenous
[48] = Half life in albino Wistar Hannover rat muscle caudal at 5 mg/kg, iv by autoradiography analysis; format: ADME, organism-based, Muscle tissue; set-up: dose 5 mg/kg, route intravenous
Thymus [49] = assay: Biodistribution in albino Wistar Hannover rat thymus at 5 mg/kg, iv after 5 mins by autoradiography analysis; format: ADME, organism-based; set-up: dose 5 mg/kg, route intravenous
Rattus norvegicus [50] = assay: Biodistribution in albino Wistar Hannover rat bone marrow at 5 mg/kg, iv after 5 mins by autoradiography analysis; format: ADME, organism-based; set-up: dose 5 mg/kg, route intravenous
Rattus norvegicus [51] = assay: Biodistribution in albino Wistar Hannover rat myocardium at 5 mg/kg, iv after 4 hrs by autoradiography analysis; format: ADME, organism-based; set-up: dose 5 mg/kg, route intravenous

A Drug uptake (Rattus norvegicus [1]) of 671 ngequiv/g, a Drug uptake (Liver [2]) of 4793 ngequiv/g and a Drug uptake (Spleen [3]) of 3306 ngequiv/g were found for `CN(CCc1cc(C(F)(F)F)cc(C(F)(F)F)c1)C(=O)[C@H](c1ccccc1)N1CCN(CC2CC2)CC1.Cl.O` in this work. The Drug uptake (Spleen [4]) was 30.9%, the Drug uptake (Rattus norvegicus [5]) was 3447 ngequiv/g and the t1/2 (Brain [6]) was 32.7 h. For the same compound, the Drug uptake (Pituitary gland) was 2350 ngequiv/g, the Drug uptake (Liver [7]) was 12.9% and the Drug uptake (Lung [8]) was 38.9%. It also gave a Drug uptake (Thymus [9]) of 67.2%, a t1/2 [10] of 20.3 h and a Drug uptake (Rattus norvegicus [11]) of 938 ngequiv/g. The Drug uptake (Rattus norvegicus [12]) was 2627 ngequiv/g, the Drug uptake (Liver [13]) was 5984 ngequiv/g and the Drug uptake (Rattus norvegicus [14]) was 3910 ngequiv/g. It also gave a Drug uptake (Rattus norvegicus [15]) of 670 ngequiv/g, a Drug uptake (Blood [16]) of 830 ngequiv/g and a Drug uptake (Rattus norvegicus [17]) of 13504 ngequiv/g. For the same compound, the t1/2 (Plasma [18]) was 21.9 h, the Drug uptake (Blood [19]) was 361 ngequiv/g and the Drug uptake (Spleen [20]) was 10694 ngequiv/g. It also gave a Drug uptake [21] of 100%, a Drug uptake (Brain [22]) of 75.6% and a Drug uptake (Plasma [23]) of 80 ngequiv/g. It also gave a Drug uptake (Kidney) of 20.8%, a Drug uptake [24] of 47.1% and a Drug uptake (Harderian gland [25]) of 13941 ngequiv/g. It also gave a Drug uptake [26] of 22.6%, a Drug uptake (Rattus norvegicus [27]) of 1728 ngequiv/g and a Drug uptake (Lung [28]) of 24769 ngequiv/g. For the same compound, the Drug uptake (Rattus norvegicus [29]) was 2972 ngequiv/g, the Drug uptake (Rattus norvegicus [30]) was 2606 ngequiv/g and the Drug uptake (Harderian gland [31]) was 6246 ngequiv/g. For the same compound, the Drug uptake (Plasma [32]) was 483 ngequiv/g, the Drug uptake (Rattus norvegicus [33]) was 21006 ngequiv/g and the t1/2 (Liver [34]) was 31.2 h. For the same compound, the t1/2 (Blood [35]) was 38.6 h, the Drug uptake (Rattus norvegicus [36]) was 537 ngequiv/g and the Drug uptake [37] was 62.1%. It also gave a Drug uptake [38] of 79.5%, a Drug uptake [39] of 79.9% and a Drug uptake (Rattus norvegicus [40]) of 891 ngequiv/g. For the same compound, the Drug uptake (Pancreas [41]) was 17869 ngequiv/g, the Drug uptake (Rattus norvegicus [42]) was 1207 ngequiv/g and the Retention time [43] was 0.358 h. The Drug uptake (Rattus norvegicus [44]) was 1510 ngequiv/g, the Drug uptake (Pancreas [45]) was 23.7% and the Drug uptake (Rattus norvegicus [46]) was 633 ngequiv/g. It also gave a Drug uptake (Blood [47]) of 122 ngequiv/g, a t1/2 [48] of 19.7 h and a Drug uptake (Thymus [49]) of 3243 ngequiv/g. The Drug uptake (Rattus norvegicus [50]) was 4445 ngequiv/g and the Drug uptake (Rattus norvegicus [51]) was 4240 ngequiv/g.

Source: ChEMBL document CHEMBL3525916, “Investigation of figopitant and its metabolites in rat tissue by combining whole-body autoradiography with liquid extraction surface analysis mass spectrometry” (Drug Metab Dispos, 2012)
